In series [1] the test system is Mycobacterium tuberculosis H37Rv. The series can be described thus: Activity test for Mycobacterium tuberculosis (MIC, H37Rv). To be noted: for anti Mycobacterium tuberculosis activity (MIC against H37Rv), times of that of PA-824: relative to PA-824; for anti Mycobacterium tuberculosis activity (MIC against H37Rv), times of that of ethambutol: relative to ethambutol; for MIC: Mycobacterium tuberculosis H37Rv, liquid medium, 37° C., read-out: Minimum inhibitory concentration against H37Rv. The format is cell-based. As to the method:
The tested strain H37Rv was transferred to liquid medium and cultured for 2 weeks at 37° C.; a small amount of the cultured bacterial solution was pipetted and placed in 4 mL of liquid medium; 10-20 sterile glass beads with a diameter of 2-3 mm were added; the mixture was shaken for 20-30 s and left to sediment for 10-20 min; the supernatant of the bacterial suspension was pipetted and adjusted to a turbidity of 1 MCF (equivalent to 1×10^7 CFU/mL) with the liquid medium for use. Each drug was dissolved to 1 mg/mL with an appropriate amount of DMSO and filtered with a 0.22 μm filter. Then, the solution was diluted to a desired experimental concentration with the liquid medium. The final concentrations of the tested drugs were set as follows: 0.001 μg/mL, 0.002 μg/mL, 0.0039 μg/mL, 0.0078 μg/mL, […], 0.03125 μg/mL, 0.0625 μg/mL, 0.125 μg/mL, 0.25 μg/mL, 0.5 μg/mL and 1 μg/mL, a total of 11 concentration gradients. 100 μL of each of the above-mentioned drug solutions was added to a 96-well microwell plate, then 100 μL bacterial solution with a concentration of 1 mg/mL was added to allow the drug concentration to reach the final set concentration, and cultured at 37° C. Three groups in parallel were set for each drug dilution with inoculation amounts of 100%, 10% and 1%, respectively, while no drug was added to the control group.

A short description of series [2]: Drug metabolism test (pharmacokinetics, oral, mice). The class given is in vivo, ICR mice. The settings on record: 10 mg/kg; for AUC(0-inf) / AUC(0-t) / Cmax / MRT / Tmax / half-life: male, ICR, mouse, po, orally (intragastric), plasma; for pharmacokinetic properties (in words): orally, judgement on Table 6. How it is done: 18 healthy male ICR mice with a body weight of 18-22 g were administered drugs by intragastric administration, with an administration dose of 10 mg/kg and an administration volume of 10 mL/kg, respectively. These mice were fasted for 12 h before the test and had free access to drinking water. These mice were fed 2 h after administration uniformly. 0.3 mL of blood was taken from the postocular venous plexus of a mouse at the set time points, placed in a heparinized test tube and centrifuged for 10 min at 3000 rpm; and plasma was separated and frozen in a refrigerator at −20° C. When measured, the sample was treated through the method for treating the plasma sample, and the drug concentration in plasma was determined by LC-MS/MS and the pharmacokinetic parameters of the drug were calculated.

Series [3] in a line: physchem. The class given is physicochemical. The settings on record: for solubility at 3 days: pH 1.2, simulated gastric fluid, thermodynamic from solid; for Solubility: 3 days, pH 1.2. How it is done: 3-5 mg of compound to be tested was added to 0.5 mL of aqueous HCl solution (pH=1.2) and the mixture was shaken for three days on a shaker; the sample was centrifuged for 5 min at 10,000 rpm in a centrifuge; a volumetric flask (50 mL) was loaded with 2 mL of supernatant and water was added to a volume at the graduation mark to prepare a sample solution; and 2.6 mg of sample was precisely weighed into a volumetric flask (50 mL), an appropriate amount of methanol was added to dissolve the sample, and water was added to a volume at the graduation mark and shaken well to give a control sample solution. 20 μL of sample solution and control sample solution were each injected, and tested by liquid chromatography. The solubility was calculated as follows:
Solubility (mg/mL)=C (control)*25*A (sample)/A (control)
C (control): concentration of the control sample
A (sample): peak area of the liquid chromatogram of the sample solution
A (control): peak area of the liquid chromatogram of the control sample solution

Each structure is given as a SMILES string. Converted amounts (≈) assume the structure as drawn.

The source of these data is US20170334927A1 (Shanghai Sun-sail Pharmaceutical Science & Technology Co., …, priority 2014, published 2017).

For `N#CC1(c2ccc(OC(F)(F)F)cc2)CCN(c2ncc(CN[C@@H]3COc4nc([N+](=O)[O-])cn4C3)cn2)CC1` [Compound 24, (S)-1-(5-(((7-nitro-3,4-dihydro-2H-imidazo[2,1-b][1,3]oxazin-3-yl)amino)methyl)pyrimidin-2-yl)-4-(4-(trifluoromethoxy)phenyl)piperidine-4-carbonitrile], in series [1], the “anti Mycobacterium tuberculosis activity (MIC against H37Rv), times of that of PA-824” value was determined as 16 times; the “anti Mycobacterium tuberculosis activity (MIC against H37Rv), times of that of ethambutol” value is 128 times; the MIC came out at 3.9 ng/mL (≈ 0.00716 µM). Moreover, in series [2], the AUC(0-inf) (usually total exposure, with the tail of the curve extrapolated) is 18300 ng·h/mL; the area under the curve AUC(0-t) (usually exposure summed from dosing to a finite time, without extrapolation to infinity) is 18200 ng·h/mL; the Cmax (usually the peak of the concentration-time curve) is 1980 ng/mL; the MRT (commonly the average time that molecules of a dose stay in the body) is 4.45 h. Besides, in series [2], the Tmax (commonly the time at which the peak concentration occurs) is 2.17 h and the half-life (commonly the time in which the quantity being followed falls by half) is 3.52 h. Besides, the solubility (commonly how much of the substance goes into solution per volume) at 3 days in series [3] is 782 µg/mL (≈ 1440 µM).

As for `O=[N+]([O-])c1cn2c(n1)OC[C@@H](NCc1ccc(N3CCN(c4ccc(OC(F)(F)F)cc4)CC3)nc1)C2` [Compound 4, (S)-2-nitro-N-((6-(4-(4-(trifluoromethoxy)phenyl)piperazin-1-yl)pyrid-3-yl)methyl)-6,7-dihydro-5H-imidazo[2,1-b][1,3]oxazin-6-amine], in series [1], the “anti Mycobacterium tuberculosis activity (MIC against H37Rv), times of that of PA-824” value was 32 times; the “anti Mycobacterium tuberculosis activity (MIC against H37Rv), times of that of ethambutol” value is on record as 256 times; the MIC was determined as 1.95 ng/mL (≈ 0.00375 µM). In series [2], this compound registered an area under the curve AUC(0-inf) of 17300 ng·h/mL, an AUC(0-t) of 17200 ng·h/mL, a Cmax of 1780 ng/mL and a mean residence time (MRT) of 5.56 h. Also, in series [2], the Tmax was 2 h and the half-life was 3.38 h. In series [3], the Solubility (commonly the concentration that dissolves in the medium under given conditions) turned out to be 1257.2 µg/mL (≈ 2420 µM) and the solubility at 3 days was > 1000 µg/mL.

For `O=[N+]([O-])c1cn2c(n1)OC[C@@H](NCc1ccc(N3CCC(Oc4ccc(OC(F)(F)F)cc4)CC3)nc1)C2` [Compound 1, (S)-2-nitro-N-((6-(4-(4-(trifluoromethoxy)phenoxy)piperidin-1-yl)pyrid-3-yl)methyl)-6,7-dihydro-5H-imidazo[2,1-b][1,3]oxazin-6-amine], in series [1], the “anti Mycobacterium tuberculosis activity (MIC against H37Rv), times of that of PA-824” value is 8 times; the “anti Mycobacterium tuberculosis activity (MIC against H37Rv), times of that of ethambutol” value came to 64 times; the MIC was determined as 7.8 ng/mL (≈ 0.0146 µM). Besides, in series [2], the AUC(0-inf) turned out to be 32300 ng·h/mL, the AUC(0-t) was 31300 ng·h/mL, the Cmax was 2670 ng/mL and the MRT was 6.64 h. Also, in series [2], the Tmax worked out at 2.33 h, the half-life was 4.76 h and the “pharmacokinetic properties (in words)” value is “excellent”. This compound displayed a solubility at 3 days in series [3] of 784 µg/mL (≈ 1470 µM).

`CC1CN(c2ccc(OC(F)(F)F)cc2)CCN1c1ncc(CN[C@@H]2COc3nc([N+](=O)[O-])cn3C2)cn1` (stereo partly drawn) [Compound 20, (3S)—N-((6-(2-methyl-4-(4-(trifluoromethoxy)phenyl)piperazin-1-yl)pyrimidin-3-yl)methyl)-7-nitro-3,4-dihydro-2H-imidazo[2,1-b][1,3]oxazin-3-amine]: in series [1], the “anti Mycobacterium tuberculosis activity (MIC against H37Rv), times of that of PA-824” value is 32 times; the “anti Mycobacterium tuberculosis activity (MIC against H37Rv), times of that of ethambutol” value is reported as 256 times; the MIC is 1.95 ng/mL (≈ 0.00365 µM). Also, in series [2], the AUC(0-inf) turned out to be 21600 ng·h/mL, the AUC(0-t) was 21500 ng·h/mL, the Cmax is 2100 ng/mL and the MRT was 4.82 h. In addition, in series [2], the Tmax was 2.33 h, the half-life was 2.98 h and the “pharmacokinetic properties (in words)” value is “excellent”. In series [3], the Solubility is 1023.8 µg/mL (≈ 1920 µM) and the solubility at 3 days was > 1000 µg/mL.

As for `N#Cc1nc(N2CCN(c3ccc(OC(F)(F)F)cc3)CC2)ncc1CN[C@@H]1COc2nc([N+](=O)[O-])cn2C1` [Compound 40, (S)-5-(((2-nitro-6,7-dihydro-5H-imidazo[2,1-b][1,3]oxazin-6-yl)amino)methyl)-2-(4-(4-(trifluoromethoxy)phenyl)piperazin-1-yl)pyrimidine-4-carbonitrile], in series [1], the “anti Mycobacterium tuberculosis activity (MIC against H37Rv), times of that of PA-824” value worked out at 8 times; the “anti Mycobacterium tuberculosis activity (MIC against H37Rv), times of that of ethambutol” value came to 64 times; the MIC came out at 7.8 ng/mL (≈ 0.0143 µM).

Turning to `O=[N+]([O-])c1cn2c(n1)OC[C@@H](NCc1ccc(N3CC4CN(c5ccc(OC(F)(F)F)cc5)CC4C3)nc1)C2` (stereo partly drawn) [Compound 11, (6S)-2-nitro-N-((6-(5-(4-(trifluoromethoxy)phenyl)hexahydropyrrolo[3,4-c]pyrrol-2(1H)-yl)pyrid-3-yl)methyl)-6,7-dihydro-5H-imidazo[2,1-b][1,3]oxazin-6-amine], the MIC in series [1] amounted to 31.2 ng/mL (≈ 0.0573 µM).

As for `N#CC1(c2ccc(OC(F)(F)F)cc2)CCN(c2ccc(CN[C@@H]3COc4nc([N+](=O)[O-])cn4C3)cn2)CC1` [Compound 10, (S)-1-(5-(((7-nitro-3,4-dihydro-2H-imidazo[2,1-b][1,3]oxazin-3-yl)amino)methyl)pyridin-2-yl)-4-(4-(trifluoromethoxy)phenyl)piperidine-4-carbonitrile], in series [1], the “anti Mycobacterium tuberculosis activity (MIC against H37Rv), times of that of PA-824” value is recorded as 32 times; the “anti Mycobacterium tuberculosis activity (MIC against H37Rv), times of that of ethambutol” value came out at 256 times; the MIC was determined as 1.95 ng/mL (≈ 0.00359 µM). In series [2], this compound had an AUC(0-inf) of 28800 ng·h/mL, an area under the curve AUC(0-t) of 28800 ng·h/mL, a Cmax of 2030 ng/mL and an MRT of 4.68 h. For the same compound, in series [2], the Tmax stood at 2.18 h, the half-life was 3.35 h and the “pharmacokinetic properties (in words)” value was “excellent”. Besides, the concentration in solution in series [3] (solubility at 3 days) came to 522 µg/mL (≈ 960 µM).

On to `O=[N+]([O-])c1cn2c(n1)OC[C@@H](NCc1cnc(N3C4CCC3CC(Oc3ccc(OC(F)(F)F)cc3)C4)nc1)C2` (stereo partly drawn) [Compound 28], for which the MIC in series [1] amounted to 15.6 ng/mL (≈ 0.0278 µM).

For `O=[N+]([O-])c1cn2c(n1)OC[C@@H](NCc1cnc(N3CCN(c4ccc(OC(F)(F)F)cc4)CC3)nc1C(F)(F)F)C2` [Compound 41, (S)-2-nitro-N-((2-(4-(4-(trifluoromethoxy)phenyl)piperazin-1-yl)-4-(trifluoromethyl)pyrimidin-5-yl)methyl)-6,7-dihydro-5H-imidazo[2,1-b][1,3]oxazin-6-amine], the MIC in series [1] was found to be 31.2 ng/mL (≈ 0.0531 µM).

With `Cc1nc(N2CCN(c3ccc(OC(F)(F)F)cc3)CC2)ncc1CN[C@@H]1COc2nc([N+](=O)[O-])cn2C1` [Compound 36], in series [1], the “anti Mycobacterium tuberculosis activity (MIC against H37Rv), times of that of PA-824” value turned out to be 8 times; the “anti Mycobacterium tuberculosis activity (MIC against H37Rv), times of that of ethambutol” value came to 64 times; the MIC stood at 7.8 ng/mL (≈ 0.0146 µM). In series [2], this compound returned an AUC(0-inf) of 16700 ng·h/mL, an AUC(0-t) of 16100 ng·h/mL, a Cmax of 2020 ng/mL and an MRT of 4.71 h. In series [2], the Tmax was found to be 1.87 h and the half-life is 2.87 h. Besides, in series [3], the Solubility came out at 1123.7 µg/mL (≈ 2100 µM) and the solubility at 3 days is > 1000 µg/mL.
